# According to patent US20140336253A1, “COMPOSITION FOR TRANSDERMAL ADMINISTRATION OF RIVASTIGMINE” (priority 2011, published 2014):
# Test: Transdermal delivery and tolerability of Rivastigmine patches
# Type: in vivo
smiles,measurement,setting,value
"CCN(C)C(=O)Oc1cccc([C@H](C)N(C)C)c1 [Rivastigmine, (S)-{3-[α-(Dimethylamino)ethyl]phenyl}-N-ethyl-N-methylcarbamate]",tolerability,dose of 36 mg free base in up to 80 cm^2 of patches,well tolerated
same,amount absorbed,"patches containing 36 mg Rivastigmine, up to 80 cm^2",12 mg
